Earlier results as cited in paper PMC11676667, “Pharmacokinetics of Oral Cannabinoid Δ8-Tetrahydrocannabivarin and Its Main Metabolites in Healthy Participants” (Pharmaceuticals, 2024).
Where two headings read alike, the source gives them in different places.

Columns and labels:
[1] = oral MCT oil formulation, healthy participants; cited from earlier work
CB1 receptor = details: in vitro, cited from earlier work
[2] = oral cannabis brownie; cited from earlier work

## CCCc1cc(O)c2c(c1)OC(C)(C)[C@@H]1CC=C(C)C[C@@H]21 [Δ8-THCV, Δ8-tetrahydrocannabivarin]
[1]
  safety and tolerability: safe and well tolerated

## CCCc1cc(O)c2c(c1)OC(C)(C)[C@@H]1CCC(C)=C[C@@H]21 [Δ9-THCV, Δ9-tetrahydrocannabivarin]
CB1 receptor; at low doses
  CB1 receptor antagonist potency relative to Δ8-THCV: approximately two times more potent
CB1 receptor
  CB1 receptor antagonist potency relative to Δ8-THCV: two-fold more potent

## CCCc1cc(O)c2c(c1)OC(C)(C)[C@@H]1CCC(C(=O)O)=C[C@@H]21 [Δ9-THCV-COOH, 11-nor-9-carboxy-Δ9-THCV]
[2]
  Tmax: 3 h
